Test results taken from patent publication US20250115571A1, “OXOPIPERAZINE DERIVATIVES” (Inthera Bioscience AG, priority 2017, published 2025).

Key:
[1] = system: CT-26 cells; test: Cell-derived syngeneic mouse model for colorectal carcinoma combined with anti-PD1 antibodies; assay type: in vivo; details: ten mice per group
Method: The cells were inoculated subcutaneously into the left flank of 60 mice. […] Body weights were measured daily until treatment start, then twice weekly. Tumor burden was assessed twice weekly by caliper measurement. The study was terminated four weeks post first dosing.

[2] = system: prostate-specific antigen (PSA); test: Serum PSA (ELISA) in the castration-resistant prostate cancer patient-derived xenograft mouse model; assay type: in vivo; details: five mice with detectable tumors; daily 10 and 3 mg/kg (two mice) or 6 mg/kg (three mice); blood 3 h after the last dose
Method: Mice from groups 1, 3 and 4 of the CPRC prostate patient-derived xenograft model (TABLE 9, EXAMPLE 322) were used to analyze serum PSA at the end of the experiment. […] PSA was detected by ELISA (Human Kallikrein 3/PSA Quantikine ELISA Kit, R&D Systems, Minneapolis, MN, USA) according to manufacturer's instructions. Minimal relative expected PSA-levels were calculated based on minimal PSA/tumor size ratio of vehicle-treated mice.

[3] = system: p53 protein and p53 lysine 382 acetylation in CaSki cells; test: P53 protein reactivation in HPV16-positive cervical cancer cells (Western blot); assay type: cell-based, human; details: 72 h
Method: HPV16-positive cervical cancer cells CaSki were subcultured as described in EXAMPLE 1, seeded at a density of 20′000 cells/cm^2; and readily treated with Compound 258 for 72 hrs. For western blot analysis, cells were removed from the cell culture vessels by trypsinization, washed twice with PBS (Sigma-Aldrich), lysed with a RIPA-buffer/Protease inhibitor cocktail (Sigma-Aldrich) by shaking on ice for 30 minutes followed by sonication on ice, 20 minutes centrifugation at 16′000×g, 4° C. Lysates were mixed 1:1 with 4× Lammli Buffer (Bio-Rad) prior to loading onto a Mini-PROTEAN TGX precast 4-20% PAGE gel (Bio-Rad). Gels were run for 1 hour at 110V. Gel were transferred to a Trans-Blot Turbo Mini PVDF membrane (Bio-Rad) using a Bio-Rad Trans-Blot Turbo System according to manufacturer's instructions. Equal amounts of cells were used, and the total transferred protein visualized on a Bio-Rad ChemiDoc Touch Imager prior to incubation with the primary antibody. […] Specific antibody binding was detected with the SuperSignal West Femto Maximum Sensitivity Substrate (ThermoFisher) and visualized using a Bio-Rad ChemiDoc Touch Imager.

[4] = system: androgen receptor (AR)-target genes KLK3, TMPRSS2, SLC45A3 in LNCaP cells; test: P300/CBP-androgen receptor target gene expression regulation in prostate cancer cells (RT-qPCR); assay type: cell-based, human; details: 300 nM added concomitantly to DHT (100 nM, 4 hours)
Method: LNCaP prostate cancer cells (CLS GmbH) were seeded at a density of 15′000 cells/cm^2 in 48-well cell culture-treated plates and cultured for 72 hours in RPMI1640 medium (Sigma-Aldrich) supplemented with Glutamax I (ThermoFisher-Gibco), “Antibiotic and Antimycotic Solution” (Sigma-Aldrich) and 1% fetal calf serum (Sigma-Aldrich). AR-driven gene expression response was induced by addition of the androgen signaling agonist dihydrotestosterone (Selleck Chemicals, Houston, TX, USA) to a concentration of 100 nanomol/Lt for 4 hours. Cells were treated with Compound 258 during dihydrotestosterone induction. Culture medium was carefully removed, cells were washed 1× with Phosphate-Buffered Saline (Sigma-Aldrich) and lysed using the SingleShot Cell Lysis Kit (Bio-Rad, Hercules, CA, USA). Gene expression of well-known AR-responsive genes prostate-specific antigen (KLK3, ThermoFisher), transmembrane serine protease 2 (TMPRSS2, ThermoFisher) and prostein (SLC45A3, ThermoFisher) was assessed by quantitative PCR after reverse transcription of the LNCaP RNA with the Applied Biosystem High-Capacity cDNA Reverse Transcription Kit (ThermoFisher). Gene expression was normalized against four reference genes (RPLP0, GUSB, GAPDH and ACTB, all probe detection systems were from Bio-Rad).

[5] = system: SiHa human HPV16-positive cervical cancer cells; test: Cell-derived xenograft mouse model for cervical cancer (SiHa CDX); assay type: in vivo; details: for Tumor Size day 37: SiHa CDX, female BALB/c nude mice, Mean ± SEM; for T/C: day 37, tumor-to-control ratio (volume/volume)
Method: Female BALB/c nude mice (7-9 weeks of age) were injected with SiHa human HPV16-positive (Human Papillomavirus type 16) cervical cancer cells. The cells were inoculated subcutaneously into the left flank of 48 mice. When tumors reached a mean volume of approximately 111 mm^3, mice were randomly assigned to eight treatment groups of each six mice (TABLE 18). Body weights were measured three times weekly prior to the initiation of dosing and daily thereafter. Tumor burden was assessed by caliper measurement twice weekly. Dosing breaks were applied when tolerability issues arose (body weight loss>10%). The study was terminated four weeks post first dosing. The experiment was performed in the Crown Bioscience Ltd. (Beijing) testing facility (Ground Floor, Light Muller Building, Changping Sector of Zhongguancun Scientific Park, No. 21 Huoju Road, Changping District, Beijing, CHIN).

[6] = 1 mg/kg, BID, p.o., listed as Compound 258
[7] = 3 mg/kg, BID/QD (p.o. BID, QD from treatment day 7 on)

## CC(C)C[C@@H]1NCCN([C@@H](CC(C)C)C(=O)N2CCC3(C[C@@H]2C)OCC(CN2CCCC2)CO3)C1=O (stereo partly drawn) [Compound 258, (3S)-1-[(2S)-4-methyl-1-oxo-1-[(3s,6s,8S)-8-methyl-3-(pyrrolidin-1-ylmethyl)-1,5-dioxa-9-azaspiro[5.5]undec-an-9-yl]pentan-2-yl]-3-(2-methylpropyl)piper-azin-2-one (^≠), isomer Z]
[1]; day 21, 1 mg/kg p.o. QD + Anti-PD1 10 mg/kg i.p. BIW
  mice alive: 10
[1]; day 21, 1 mg/kg p.o. QD alone
  mice alive: 10
[1]; day 21, 3 mg/kg p.o. QD + Anti-PD1 10 mg/kg i.p. BIW
  mice alive: 10
[1]; day 21, 3 mg/kg p.o. QD alone
  mice alive: 10
[1]; day 23, 1 mg/kg p.o. QD + Anti-PD1 10 mg/kg i.p. BIW
  mice alive: 10
[1]; day 23, 1 mg/kg p.o. QD alone
  mice alive: 10
[1]; day 23, 3 mg/kg p.o. QD + Anti-PD1 10 mg/kg i.p. BIW
  mice alive: 10
[1]; day 23, 3 mg/kg p.o. QD alone
  mice alive: 8
[1]; day 25, 1 mg/kg p.o. QD + Anti-PD1 10 mg/kg i.p. BIW
  mice alive: 10
[1]; day 25, 1 mg/kg p.o. QD alone
  mice alive: 5
[1]; day 25, 3 mg/kg p.o. QD + Anti-PD1 10 mg/kg i.p. BIW
  mice alive: 10
[1]; day 25, 3 mg/kg p.o. QD alone
  mice alive: 6
[1]; day 28, 1 mg/kg p.o. QD + Anti-PD1 10 mg/kg i.p. BIW
  mice alive: 7
[1]; day 28, 1 mg/kg p.o. QD alone
  mice alive: 2
[1]; day 28, 3 mg/kg p.o. QD + Anti-PD1 10 mg/kg i.p. BIW
  mice alive: 9
[1]; day 28, 3 mg/kg p.o. QD alone
  mice alive: 2
[1]; day 30, 1 mg/kg p.o. QD + Anti-PD1 10 mg/kg i.p. BIW
  mice alive: 6
[1]; day 30, 1 mg/kg p.o. QD alone
  mice alive: 1
[1]; day 30, 3 mg/kg p.o. QD + Anti-PD1 10 mg/kg i.p. BIW
  mice alive: 8
[1]; day 30, 3 mg/kg p.o. QD alone
  mice alive: 0
[1]; day 32, 1 mg/kg p.o. QD + Anti-PD1 10 mg/kg i.p. BIW
  mice alive: 4
[1]; day 32, 1 mg/kg p.o. QD alone
  mice alive: 0
[1]; day 32, 3 mg/kg p.o. QD + Anti-PD1 10 mg/kg i.p. BIW
  mice alive: 4
[1]; day 32, 3 mg/kg p.o. QD alone
  mice alive: 0
[1]; day 34, 1 mg/kg p.o. QD + Anti-PD1 10 mg/kg i.p. BIW
  mice alive: 4
[1]; day 34, 1 mg/kg p.o. QD alone
  mice alive: 0
[1]; day 34, 3 mg/kg p.o. QD + Anti-PD1 10 mg/kg i.p. BIW
  mice alive: 4
[1]; day 34, 3 mg/kg p.o. QD alone
  mice alive: 0
[1]; day 36, 1 mg/kg p.o. QD + Anti-PD1 10 mg/kg i.p. BIW
  mice alive: 4(*)
[1]; day 36, 1 mg/kg p.o. QD alone
  mice alive: 0
[1]; day 36, 3 mg/kg p.o. QD + Anti-PD1 10 mg/kg i.p. BIW
  mice alive: 4(*)
[1]; day 36, 3 mg/kg p.o. QD alone
  mice alive: 0
[2]
  serum prostate-specific antigen (PSA) levels versus minimal relative expected PSA-levels: clear reduction
[3]
  concentration at which acetylation of p53 lysine 382 is detectable: 20 nM
  concentration at which induction of p53 protein above baseline is evident: 7 nM
[4]
  repression of PSA (KLK3) gene expression stimulation: complete repression
  repression of SLC45A3 gene expression stimulation: 80%
  repression of TMPRSS2 gene expression stimulation: 85%
[5]; [6]
  Tumor Size day 37: 296 ± 27 mm^3
  T/C: 31.6%
[5]; [7]
  Tumor Size day 37: 104 ± 30 mm^3
  T/C: 11.1%
